Reference: the supplement of paper PMC13380429

What was measured:
Settings in all cases: 72 h
U2OS [1] = experiment: cell viability relative to DMSO; higher = less toxic
Caco-2 [2] = experiment: as above
Vero E6 [3] = experiment: as above
HepG2 [4] = experiment: as above
Calu-3 [5] = experiment: as above
U2OS [6] = experiment: drug sensitivity score (DSS) for viability; higher = more toxic; extreme values may be limits of the assay
Caco-2 [7] = experiment: as above
Vero E6 [8] = experiment: as above
HepG2 [9] = experiment: as above
Calu-3 [10] = experiment: as above
U2OS [11] = experiment: relative viability EC50 (midpoint between 100% and the lowest measured viability); higher = less toxic
Caco-2 [12] = experiment: as above
Vero E6 [13] = experiment: as above
HepG2 [14] = experiment: as above
Calu-3 [15] = experiment: as above

SMILES	cell viability (U2OS [1]; 1 nM)	cell viability (U2OS [1]; 10 nM)	cell viability (U2OS [1]; 100 nM)	cell viability (U2OS [1]; 1000 nM)	cell viability (U2OS [1]; 10000 nM)	cell viability (Caco-2 [2]; 1 nM)	cell viability (Caco-2 [2]; 10 nM)	cell viability (Caco-2 [2]; 100 nM)	cell viability (Caco-2 [2]; 1000 nM)	cell viability (Caco-2 [2]; 10000 nM)	cell viability (Vero E6 [3]; 1 nM)	cell viability (Vero E6 [3]; 10 nM)	cell viability (Vero E6 [3]; 100 nM)	cell viability (Vero E6 [3]; 1000 nM)	cell viability (Vero E6 [3]; 10000 nM)	cell viability (HepG2 [4]; 1 nM)	cell viability (HepG2 [4]; 10 nM)	cell viability (HepG2 [4]; 100 nM)	cell viability (HepG2 [4]; 1000 nM)	cell viability (HepG2 [4]; 10000 nM)	cell viability (Calu-3 [5]; 1 nM)	cell viability (Calu-3 [5]; 10 nM)	cell viability (Calu-3 [5]; 100 nM)	cell viability (Calu-3 [5]; 1000 nM)	cell viability (Calu-3 [5]; 10000 nM)	drug sensitivity score (U2OS [6])	drug sensitivity score (Caco-2 [7])	drug sensitivity score (Vero E6 [8])	drug sensitivity score (HepG2 [9])	drug sensitivity score (Calu-3 [10])	relative viability EC50 (U2OS [11])	relative viability EC50 (Caco-2 [12])	relative viability EC50 (Vero E6 [13])	relative viability EC50 (HepG2 [14])	relative viability EC50 (Calu-3 [15])
Cc1oc2nc3c(c(NC(=O)CN4CCCC4=O)c2c1C)CCCC3 [BCI-540]	100%	99.8%	97.8%	105%	101%	94.4%	99.2%	99.8%	103%	101%	93.2%	93.8%	99.5%	92.5%	110%	88.7%	100%	98.5%	98%	94.3%	90.2%	101%	94.4%	104%	107%	0	0	0	0	0	> 10 µM	> 10 µM	> 10 µM	> 10 µM	> 10 µM
CC(C)n1nc(-c2cc3cc(O)ccc3[nH]2)c2c(N)ncnc21 [PP242]	99.2%	99%	96%	56.1%	16.4%	104%	88.9%	80.4%	41.4%	31.3%	107%	105%	96.2%	67.9%	15.9%	100%	121%	90.2%	50%	19.8%	107%	94.2%	79.6%	26.5%	20.1%	9.8	13.1	8.7	10.8	16	0.927 µM	0.208 µM	1.26 µM	0.652 µM	0.203 µM
CNC(=O)[C@@H](Cc1ccccc1)N(C)C(=O)[C@@H](Cc1ccc2ccccc2c1)N(C)C(=O)/C=C/CC(C)(C)N [tabimorelin]	99.9%	101%	96.8%	103%	98.3%	99.8%	104%	103%	95.4%	92.3%	95.8%	102%	101%	102%	99.1%	105%	96.5%	106%	87.3%	96.5%	96.4%	100%	100%	104%	88.2%	0	0	0	0.6	0	> 10 µM	> 10 µM	> 10 µM	> 10 µM	> 10 µM
